# Experiments:
# Assay type in all cases: in vivo
# Aphis gossypii = experiment: Test Example 1: foliar spray on cucumber seedling inoculated with Aphis gossypii; details: 144 h, 500 ppm active ingredient, 20 ml sprayed on cucumber seedling, 6 days after spraying
# Experimental: On the other hand, on a cucumber seedling (the first true leaf stage) planted in a plastic cup was inoculated with about 30 Aphis gossypii (whole stage), and leaving it for a day. Twenty (20) ml of each test solution was sprayed on the seedling. Six (6) days after spraying, the number of the surviving Aphis gossypii parasitized on the leaves of the cucumber was examined, and a control value was calculated according to the following equation: Controlling value (%)={1−(Cb×Tai)/(Cai×Tb)}×100 wherein the symbols in the above equation represent as follows: Cb: the number of insects in a non-treated section before treatment Cai: the number of insects in a non-treated section on observation Tb: the number of insects in a treated section before treatment Tai: the number of insects in a […] the non-treated section represents a section where the test diluted solution prepared by diluting the formulation without the present compound as in Formulation Example 5 with the same amount of water as in the treated-section was used.
# Nilaparvata lugens [1] = experiment: Test Example 3: spray on rice seedling, Nilaparvata lugens larvae released; details: 144 h, 10 ml sprayed on rice seedling, third-fourth instar larvae, after 6 days
# Experimental: On the other hand, a rice seedling (the second leaf stage) planted in a polyethylene cup was sprayed with 10 ml of each test solution. After air-drying, 20 third-fourth instar larvae of Nilaparvata lugens were released, and kept in the greenhouse of 25° C. After 6 days, the number of insect of living Nilaparvata lugens parasitized on the rice was examined, and a control value was calculated according to the following equation: Controlling value (%)={1−(Cb×Tai)/(Cai×Tb)}×100 wherein the symbols in the above equation represent as follows: Cb: the number of insects in a non-treated section before treatment Cai: the number of insects in a non-treated section on observation Tb: the number of insects in a treated section before treatment Tai: the number of insects in a […] the non-treated section represents a section where the test diluted solution prepared by diluting the formulation without the present compound as in Formulation Example 5 with the same amount of water as in the treated-section was used.
# Nilaparvata lugens [2] = experiment: Test Example 4: soil drench of rice seedling, Nilaparvata lugens larvae released; details: 144 h, 5 ml drench at foot of rice seedling, larvae released after 7 days, counted 6 days later
# Experimental: On the other hand, a rice seedling (2 weeks after sowing, the second leaf stage) planted in a plastic cup was drenched at its foot with 5 ml of each test solution, and kept in a greenhouse of 25° C. for 7 days. Twenty (20) third-fourth instar larvae of Nilaparvata lugens were released, and further kept in the greenhouse for 6 days, then the number of insect of living Nilaparvata lugens parasitized on the rice was examined, and a control value was calculated according to the following equation: Controlling value (%)={1−(Cb×Tai)/(Cai×Tb)}×100 wherein the symbols in the above equation represent as follows: Cb: the number of insects in a non-treated section before treatment Cai: the number of insects in a non-treated section on observation Tb: the number of insects in a treated section before treatment Tai: the number of insects in a […] the non-treated section represents a section where the test diluted solution prepared by diluting the formulation without the present compound as in Formulation Example 5 with the same amount of water as in the treated-section was used.
# Plutella xylostella = experiment: Test Example 6: spray on cabbage, Plutella xylostella larvae released; details: 120 h, 20 mL/cup sprayed on cabbage, second instar larvae, 25° C., 5 days, read-out: death rate
# Experimental: Each test solution was prepared by diluting a formulation containing any of the present compounds 1-4, 1-5, 1-6, 1-8, 1-9, 1-10, 1-16, 1-18, 1-19, 1-20, 1-29, 1-46, 1-48, 1-49, 1-50, 1-63 and 1-76 as obtained in Formulation Example 5, with water so as to give 500 ppm of the concentration of the active ingredient.
# On the other hand, Cabbage (the third leaf stage) planted in a polyethylene cup was sprayed with 20 mL/cup of each test solution. After the test solution was dried, the aerial part was cut off, and then placed in a 50 mL volume cup. Five (5) second instar larvae of Plutella xylostella were released into the cup, and the cup was sealed with a lid. After the cup was kept at 25° C. for 5 days, the number of living insects was counted. A death rate was calculated according to the following equation: Death rate (%)=(Number of dead insects/Number of tested insects)×100
# Musca domestica = experiment: Test Example 8: treated filter paper with sucrose bait, Musca domestica; details: 500 ppm, 0.7 ml on filter paper, female imagoes, after 24 hours
# Experimental: Each test solution was prepared by diluting a formulation containing any of the present compounds 1-4, 1-6, 1-8, 1-9, 1-10, 1-63 and 1-95 as obtained in Formulation Example 5, with water so as to give 500 ppm of the concentration of the active ingredient.
# (§1) A filter paper having a diameter of 5.5 cm was spread on the bottom of a polyethylene cup having a diameter of 5.5 cm and each test solution (0.7 ml) was added dropwise onto the filter paper. As a bait sucrose (30 mg) was uniformly placed on the filter paper. Into the polyethylene cup, 10 female imagoes of Musca domestica were released and the cup was sealed with a lid. After 24 hours, the number of surviving Musca domestica was examined and the death rate of the pest was calculated according to the following equation: Death rate (%)=(Number of dead insects/Number of tested insects)×100
# Blattalla germanica = experiment: Test Example 9: treated filter paper with sucrose bait, Blattalla germanica; details: 500 ppm, 0.7 ml on filter paper, male imagoes, after 6 hours
# Experimental: Each test solution was prepared by diluting a formulation containing any of the present compounds 1-9 and 1-19 as obtained in Formulation Example 5, with water so as to give 500 ppm of the concentration of the active ingredient.
# as §1, with “Sucrose (30 mg) as” for “As”, “bait” for “bait sucrose (30 mg)”, “2 male” for “10 female”, “Blattalla germanica” for “Musca domestica”, “6” for “24”
# Laodelphax striatella = experiment: Test Example 12: spray on rice seedling, Laodelphax striatella larvae released; details: 50 ppm, 10 ml sprayed on rice seedling, third instar larvae, after 5 days; method equation is a death rate
# Experimental: (§2) Any of the present compounds 1-6, 1-8, 1-9 and 1-10 (10 mg) was dissolved in a mixed solution (0.1 ml) of xylene, DMF and Sorpol® 3005X (manufactured by Toho Chemical Industry Co., Ltd.) in a ratio of 4:4:1 to obtain a formulation. Each formulation was diluted with water so as to give 50 ppm of the concentration of the active ingredient.
# (§3) On the other hand, a rice seedling (2.5 leaf stage) planted in a polyethylene cup was sprayed with 10 ml of each test solution. After air-drying the seedling, 10 third instar larvae of Laodelphax striatella were released, and kept in the greenhouse of 25° C. After 5 days, the number of living insects was counted. A death rate was calculated according to the following equation: Death rate (%)={10−(Number of living insects after 5 days)/10}×100
# Sogatella furcifera = experiment: Test Example 13: spray on rice seedling, Sogatella furcifera larvae released; details: 50 ppm, 10 ml sprayed on rice seedling, third instar larvae, after 5 days; method equation is a death rate
# Experimental: as §2
# as §3, with “Sogatella furcifera” for “Laodelphax striatella”, “days)/10}×100 As a result, in the treated-section using each test solution containing each of the present compounds 1-6, 1-8, 1-9 and 1-10, the control value was 100%.” for “days)/10}×100”
Compound,pest or weed control at 500 ppm (Aphis gossypii),pest or weed control at 500 ppm (Nilaparvata lugens [1]),pest or weed control at 500 ppm (Nilaparvata lugens [2]),pest or weed control at 500 ppm (Plutella xylostella),death rate (Musca domestica),death rate (Blattalla germanica),control value (Laodelphax striatella),control value (Sogatella furcifera)
"CCS(=O)(=O)c1cccnc1-c1nc2cc([S+]([O-])C(F)(F)F)cnc2o1 (centres unmarked) [present compound 1-4, 2-(3-ethylsulfonylpyridin-2-yl)-6-(trifluoromethylsulfinyl)oxazolo[5,4-b]pyridine]",≥ 90%,≥ 90%,≥ 90%,≥ 80%,100%,–,–,–
"CCS(=O)(=O)c1cccnc1-c1nc2cc([S+]([O-])C(F)(F)F)ccc2o1 (centres unmarked) [present compound 1-9, 2-(3-ethylsulfonylpyridin-2-yl)-5-(trifluoromethylsulfinyl)benzoxazole]",≥ 90%,≥ 90%,≥ 90%,≥ 80%,100%,100%,100%,100%
"CCS(=O)(=O)c1cc(C(F)(F)F)cnc1-c1nc2cc(S(=O)(=O)C(F)(F)F)ccc2o1 [present compound 1-20, 2-(3-ethylsulfonyl-5-trifluoromethylpyridine-2-yl)-5-(trifluoromethylsulfonyl)benzoxazole]",≥ 90%,–,–,≥ 80%,–,–,–,–
"CCSc1cc(C(F)(F)F)cnc1-c1nc2cc(SC(F)(F)F)ccc2o1 [present compound 1-16, 2-(3-ethylsulfanyl-5-trifluoromethylpyridine-2-yl)-5-(trifluoromethylsulfanyl)benzoxazole]",–,–,–,≥ 80%,–,–,–,–
"CCSc1cccnc1-c1nc2cc(SC(F)(F)F)ccc2o1 [present compound 1-6, 2-(3-ethylsulfanylpyridine-2-yl)-5-(trifluoromethylsulfanyl)benzoxazole]",≥ 90%,≥ 90%,≥ 90%,≥ 80%,100%,–,100%,100%
"CCS(=O)(=O)c1cc(C(F)(F)F)cnc1-c1nc2cc(SC(F)(F)F)ccc2o1 [present compound 1-18, 2-(3-ethylsulfonyl-5-trifluoromethylpyridine-2-yl)-5-(trifluoromethylsulfanyl)benzoxazole]",≥ 90%,≥ 90%,–,≥ 80%,–,–,–,–
"CCS(=O)(=O)c1cccnc1-c1nc2cc(SC(F)(F)F)ccc2o1 [present compound 1-8, 2-(3-ethylsulfonylpyridin-2-yl)-5-(trifluoromethylsulfanyl)benzoxazole]",≥ 90%,≥ 90%,≥ 90%,≥ 80%,100%,–,100%,100%
"CCSc1cc(C(F)(F)F)cnc1-c1nc2cc([S+]([O-])C(F)(F)F)cnc2o1 (centres unmarked) [present compound 1-65, 2-(3-ethylsulfanyl-5-trifluoromethylpyridine-2-yl)-6-(trifluoromethylsulfinyl)oxazolo[5,4-b]pyridine]",≥ 90%,–,–,–,–,–,–,–
"CCS(=O)(=O)c1cccnc1-c1nc2cc(S(=O)(=O)C(F)(F)F)cnc2o1 [present compound 1-5, 2-(3-ethylsulfonylpyridin-2-yl)-6-(trifluoromethylsulfonyl)oxazolo[5,4-b]pyridine]",≥ 90%,–,–,≥ 80%,–,–,–,–
CCS(=O)(=O)c1ccc[n+]([O-])c1-c1nc2cc(S(=O)(=O)C(F)(F)F)ccc2o1 [present compound 1-76],≥ 90%,≥ 90%,≥ 90%,≥ 80%,–,–,–,–
"CCSc1cccnc1-c1nc2cc([S+]([O-])C(F)(F)F)ccc2o1 (centres unmarked) [present compound 1-63, 2-(3-ethylsulfanylpyridine-2-yl)-5-(trifluoromethylsulfinyl)benzoxazole]",≥ 90%,–,≥ 90%,≥ 80%,100%,–,–,–
"CCS(=O)(=O)c1cc(C(F)(F)F)cnc1-c1nc2cc([S+]([O-])C(F)(F)F)ccc2o1 (centres unmarked) [present compound 1-19, 2-(3-ethylsulfonyl-5-trifluoromethylpyridine-2-yl)-5-(trifluoromethylsulfinyl)benzoxazole]",≥ 90%,≥ 90%,≥ 90%,≥ 80%,–,100%,–,–
"CCS(=O)(=O)c1cccnc1-c1nc2cc(S(=O)(=O)C(F)(F)F)ccc2o1 [present compound 1-10, 2-(3-ethylsulfonylpyridin-2-yl)-5-(trifluoromethylsulfonyl)benzoxazole]",≥ 90%,≥ 90%,≥ 90%,≥ 80%,100%,–,100%,100%

# — patent publication US9615580B2, “Fused heterocyclic compound and use thereof for pest control” (Sumitomo Chemical Company, Limited, priority 2012, dated 2017)
